From patent publication US8669247B2, “2,5-disubstituted arylsulfonamide CCR3 antagonists” (Axikin Pharmaceuticals, Inc., priority 2009, dated 2014) come the findings set out here.

Structures are written as SMILES. Counter-ions that a name gives are not always drawn.

One data set concerns the target T1, CCR3 receptor (UniProt P51677).
T1 sequence (P51677 1-355): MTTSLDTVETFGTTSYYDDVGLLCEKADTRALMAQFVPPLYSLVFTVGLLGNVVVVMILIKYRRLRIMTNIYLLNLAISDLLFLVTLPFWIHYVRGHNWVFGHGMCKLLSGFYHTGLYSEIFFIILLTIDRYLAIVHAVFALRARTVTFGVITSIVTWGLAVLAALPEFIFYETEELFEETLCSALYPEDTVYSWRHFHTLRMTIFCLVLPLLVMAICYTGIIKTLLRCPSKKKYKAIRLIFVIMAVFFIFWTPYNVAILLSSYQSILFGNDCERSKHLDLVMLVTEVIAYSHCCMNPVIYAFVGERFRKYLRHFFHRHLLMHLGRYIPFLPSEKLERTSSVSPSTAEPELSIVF
The data set is described as follows: CCR3 Receptor Binding Assay ([125I]-labeled human eotaxin/CCL11 displacement on cells). The following applies: Free (free form of the compound). As to the method:
Cells were washed once with PBS and resuspended in a binding buffer (25 mM HEPES pH 7.6, 5 mM MgCl2, 1 mM CaCl2, 0.5% BSA, 0.1% NaN3), […] of cell suspension (2×10^5 cells/well) and 0.1 nM [^125I]-labeled human eotaxin/CCL11 (2000 Ci/mmol specific activity) were mixed in a 96-well U-bottom polypropylene plate, and incubated for 60 min at room temperature for the binding reaction. The cell suspension was then transferred to a filtration plate (#MAFB, Millipore), and washed 3 times with the binding buffer containing 0.5 M NaCl, scintillant added, and the radioactivity was counted on a TopCount (Packard). For the determination of non-specific binding, the cell suspension and [^125I]-labeled human eotaxin/CCL11 were incubated in the presence of 500 nM of unlabeled human eotaxin/CCL11. See, lino et al., “Molecular cloning and functional characterization of cynomolgus monkey (Macaca fascicularis) CC chemokine receptor, CCR3,” Cytokine 2002, 19, 276-286.

As usually defined, the melting point is the temperature, or range, at which the solid turns liquid. The compound `CC(C)N1CCN(S(=O)(=O)c2cc(C#N)ccc2Oc2cc(F)ccc2F)CC1` (as salt: hydrochloride) [Compound 54, 4-(2,5-Difluorophenoxy)-3-(4-isopropylpiperazin-1-ylsulfonyl)benzonitrile] registered a melting point of 179 to 182 °C. As for `CC1CN(S(=O)(=O)c2cc(C#N)ccc2Sc2cc(Cl)ccc2Cl)CC(C)N1` (stereo not shown) (as salt: hydrochloride) [Compound 79, 4-(2,5-Dichlorophenylthio)-3-(3,5-dimethylpiperazin-1-ylsulfonyl)benzonitrile], the melting point fell in the range of 176 to 180 °C.

The Ki is a measure of affinity in units of concentration, obtained from inhibition or displacement. Low values mean higher affinity, high ones lower affinity. As for `N#Cc1ccc(Oc2cc(F)ccc2F)c(S(=O)(=O)N2CCOCC2)c1` [Compound 58, 4-(2,5-Difluorophenoxy)-3-(morpholinosulfonyl)benzonitrile], the melting point was 165 to 168 °C. The Ki on CCR3 receptor was more than 5 nM. Taken in the same sequence, the figures for `N#Cc1ccc(Sc2cc(Cl)ccc2Cl)c(S(=O)(=O)N2CCOCC2)c1` [Compound 82, 4-(2,5-Dichlorophenylthio)-3-(morpholinosulfonyl)benzonitrile] were 216 to 219 °C and 100 to 500 nM.

Compound `CC1CN(S(=O)(=O)c2cc([N+](=O)[O-])ccc2Oc2cc(Cl)ccc2Cl)CC(C)N1` (stereo not shown) [Compound 104, 1-(2-(2,5-Dichlorophenoxy)-5-nitrophenylsulfonyl)-3,5-dimethylpiperazine] gave a melting point of 161 to 163 °C. Also, the Ki on CCR3 receptor fell in the range of 10 to 25 nM.

On to `O=[N+]([O-])c1ccc(Sc2cc(Cl)ccc2Cl)c(S(=O)(=O)N2CCOCC2)c1` [Compound 110, 4-(2-(2,5-Dichlorophenylthio)-5-nitrophenylsulfonyl)morpholine], for which the melting point lay within 182 to 186 °C. At CCR3 receptor, this compound registered an inhibitory constant (Ki) of more than 5 nM. Taken in the same sequence, the figures for `O=[N+]([O-])c1ccc(Oc2cc(Cl)ccc2Cl)c(S(=O)(=O)N2CCOCC2)c1` [Compound 111, 4-(2-(2,5-Dichlorophenoxy)-5-nitrophenylsulfonyl)morpholine] were 168 to 170 °C and more than 5 nM. Taken in the same sequence, the figures for `Cc1ccc(C)c(Sc2ccc([N+](=O)[O-])cc2S(=O)(=O)N2CCOCC2)c1` [Compound 112, 4-(2-(2,5-Dimethylphenylthio)-5-nitrophenylsulfonyl)morpholine] were 141 to 143 °C and more than 5 nM.

As for `Cc1ccc(C)c(Oc2ccc([N+](=O)[O-])cc2S(=O)(=O)N2CCOCC2)c1` [Compound 113, 4-(2-(2,5-Dimethylphenoxy)-5-nitrophenylsulfonyl)morpholine], the melting point is 124 to 127 °C. This compound had a Ki at CCR3 receptor of more than 5 nM. `O=[N+]([O-])c1ccc(Sc2cc(Cl)ccc2Cl)c(S(=O)(=O)N2CCSCC2)c1` [Compound 114, 4-(2-(2,5-Dichlorophenylthio)-5-nitrophenylsulfonyl)thiomorpholine] returned a melting point of 189 to 191 °C. Besides, the inhibition constant Ki at CCR3 receptor was more than 5 nM. In turn, `O=[N+]([O-])c1ccc(Oc2cc(Cl)ccc2Cl)c(S(=O)(=O)N2CCSCC2)c1` [Compound 115, 4-(2-(2,5-Dichlorophenoxy)-5-nitrophenylsulfonyl)thiomorpholine] showed a melting point of 191 to 194 °C. This compound also returned an inhibition constant (Ki) at CCR3 receptor of more than 5 nM. Taken in the same sequence, the figures for `Cc1ccc(C)c(Sc2ccc([N+](=O)[O-])cc2S(=O)(=O)N2CCSCC2)c1` [Compound 116, 4-(2-(2,5-Dimethylphenylthio)-5-nitrophenylsulfonyl)thiomorpholine] were 130 to 137 °C and more than 5 nM.

`Cc1ccc(C)c(Oc2ccc([N+](=O)[O-])cc2S(=O)(=O)N2CCSCC2)c1` [Compound 117, 4-(2-(2,5-Dimethylphenoxy)-5-nitrophenylsulfonyl)thiomorpholine] had a melting point of 144 to 147 °C. The compound also gave a Ki at CCR3 receptor of more than 5 nM. On to `Cc1ccc(C)c(Sc2ccc([N+](=O)[O-])cc2S(=O)(=O)N2CCNCC2)c1` [Compound 122, 1-(2-(2,5-Dimethylphenylthio)-5-nitrophenylsulfonyl)piperazine], for which the melting point was 142 to 145 °C. This compound came in with a Ki at CCR3 receptor of 100 to 500 nM. Turning to `O=[N+]([O-])c1ccc(Sc2cc(Cl)ccc2Cl)c(S(=O)(=O)N2CCNCC2)c1` [Compound 123, 1-(2-(2,5-Dichlorophenylthio)-5-nitrophenylsulfonyl)piperazine], the melting point is 150 to 153 °C. The Ki at CCR3 receptor lay within 10 to 25 nM.
